Data from US20080160520A1, “Methods and Composition for Diagnosing and Treating Cancer” (priority 2006, published 2008).
Read-outs that look alike come from different tables or passages of the source. Where a SMILES comes first, the peptide text is derived from it. The star is where a group is joined. Cbz = O=C(OCc1ccccc1)*

Assays:
Format in all cases: cell-based, S. cerevisiae
[1] = system: aneuploid yeast strains; conditions: for colony formation of aneuploids on medium containing the agent: compared with wild-type cells, FIG. 13B, E, I
Source text: To determine whether the synthesis of proteins from the additional chromosomes and their presence in the cell represents an increased burden on the cell's protein production machinery, the ability of aneuploid strains to grow under conditions that interfere with transcription, protein synthesis and protein folding was examined.

[2] = system: YAC-bearing strains; conditions: YACs with human or mouse DNA inserts; FIG. 5B
Description: Strains (from the top): A11311, A16850, A17392, A17393, A17394, A13628, A17396, A17397, A16851.
The phenotypes shared by aneuploids might result from the mere presence of additional DNA or from the RNAs and proteins synthesized from these chromosomes. Thus, the effects of seven yeast artificial chromosomes (YACs) containing human or mouse DNA inserts ranging from approximately 350 kb to 1.6 MB in size were tested (Table 3).
The other phenotypes observed in aneuploids were not shared by the YAC-bearing strains. […] Progression through other cell cycle stages was not affected either as judged by DNA content analysis (FIGS. 5, C and D).

[3] = system: cdc28-4 and cdc23-1 mutants; experiment: Sensitivity of slow-proliferating cdc28-4 and cdc23-1 mutants to protein synthesis inhibitors; conditions: mutants severely impaired in cell division even at 23° C.; FIGS. 4C and D

CCCCNC(=O)n1c(NC(=O)OC)nc2ccccc21 [benomyl]
sensitivity of aneuploid strains ([1]; 10 and 20 μg/ml, FIG. 13F): About half of the aneuploid strains analyzed exhibited increased sensitivity

NC(=O)NO [hydroxyurea]
colony formation of aneuploids on medium containing the agent [1]: formed colonies as well as wild-type cells

C[C@@H]1C[C@@H]([C@H](O)CC2CC(=O)NC(=O)C2)C(=O)[C@@H](C)C1 [cycloheximide]
proliferation of aneuploid strains ([1]; 0.05 μg/ml, FIG. 4C): proliferation of most was impaired
proliferation of all aneuploid strains ([1]; 0.1 μg/ml and 0.2 μg/ml, FIG. 4C): decreased proliferation
proliferation of all aneuploid strains ([1]; all aneuploid strains, FIG. 4C): hampered
sensitivity of YAC-bearing strains [2]: did not exhibit increased sensitivity
sensitivity of cdc28-4 and cdc23-1 mutants [3]: did not exhibit increased sensitivity

CC(C)C[C@@H](C=O)NC(=O)[C@H](CC(C)C)NC(=O)[C@H](CC(C)C)NC(=O)OCc1ccccc1 [MG 132] (Cbz-Leu-Leu-Leu-aldehyde)
proliferation of aneuploid strains (ability to form colonies on plates containing the drug) ([1]; disomes IV, XII, XIII, XIV and XVI, PDR5 deleted, concentrations that wild-type cells grow at, FIG. 4F): inhibited

CC(=O)Nc1c2sscc-2n(C)c1=O [Thiolutin]
proliferation of aneuploids ([1]; high concentration 20 μg/ml, all aneuploids except disomes I, X, XIV, FIG. 4B): inhibited
proliferation of aneuploids ([1]; low concentrations 5 μg/ml to 15 μg/ml, FIG. 13H): proliferation of only a subset of strains was impaired
sensitivity of YAC-bearing strains [2]: did not exhibit increased sensitivity

CC[C@H]1/C=C/C=C/C[C@@H](C)[C@H](O)[C@@](C)(O)C(=O)[C@@H](C)[C@H](O)[C@@H](C)C(=O)[C@@H](C)[C@H](O)[C@@H](C)/C=C/C(=O)O[C@@H]2[C@H](C)[C@H](CC1)O[C@]1(CC[C@H](C)[C@H](C[C@@H](C)O)O1)[C@H]2C [oligomycin]
sensitivity of aneuploid strains ([1]; increasing concentrations, FIG. 13I): did not exhibit increased sensitivity

O=C(O)C1CCN1 (stereo not drawn) [azetidine 2-carboxylic acid]
colony formation of aneuploids on medium containing the agent [1]: formed colonies as well as wild-type cells

O=c1cn[nH]c(=O)[nH]1 [6-Azauracil]
colony formation of aneuploids on medium containing the agent [1]: formed colonies as well as wild-type cells

OO [hydrogen peroxide]
proliferation of aneuploids in the presence of the agent ([1]; 1 mM, FIG. 13D, G): None of the aneuploids showed altered proliferation
